Entries after “also recorded” stand apart in the source; their conditions may differ.
Experiments:
[1] = test system: Nodal; assay: qPCR analysis of Nodal expression; type: cell-based, human; conditions: C8161, 10 nM, 8–72 h
Experimental: For the qPCR analysis of Nodal and Notch expression, total RNA was isolated from cells using the PerfectPure RNA Cell Isolation kit (5Prime) and then reverse-transcribed using 1 μg RNA, RT master mix cocktail and MMLV reverse transcriptase. qPCR was performed on a 7500 Real-Time PCR System (Life Technologies) using manufacturer recommended protocol. TaqMan gene expression human primer/probe sets (Applied Biosystems) utilized were Nodal (Hs00250630_s1) and Notch4 (Hs00270200_m1). Target gene expression was normalized to appropriate house-keeping genes (e.g., RPLP0 or GAPDH). Data was analyzed using Life Technologies Sequence Detection Software.

[2] = target: GADD45GIP1 (Homo sapiens, UniProt Q8TAE8); assay: Surface plasmon resonance (Biacore); type: binding; conditions: GADD45GIP1, SPR
[3] = test system: SK-OV-3; assay: NCI 60 cytotoxicity screening; type: cell-based; conditions: Homo sapiens; SK-OV-3, Ovarian
[4] = target: T1, Catenin β-1 (Homo sapiens, UniProt P35222); assay: Surface plasmon resonance (Biacore); type: binding; conditions: Catenin β-1, SPR
T1 sequence (P35222 1-781): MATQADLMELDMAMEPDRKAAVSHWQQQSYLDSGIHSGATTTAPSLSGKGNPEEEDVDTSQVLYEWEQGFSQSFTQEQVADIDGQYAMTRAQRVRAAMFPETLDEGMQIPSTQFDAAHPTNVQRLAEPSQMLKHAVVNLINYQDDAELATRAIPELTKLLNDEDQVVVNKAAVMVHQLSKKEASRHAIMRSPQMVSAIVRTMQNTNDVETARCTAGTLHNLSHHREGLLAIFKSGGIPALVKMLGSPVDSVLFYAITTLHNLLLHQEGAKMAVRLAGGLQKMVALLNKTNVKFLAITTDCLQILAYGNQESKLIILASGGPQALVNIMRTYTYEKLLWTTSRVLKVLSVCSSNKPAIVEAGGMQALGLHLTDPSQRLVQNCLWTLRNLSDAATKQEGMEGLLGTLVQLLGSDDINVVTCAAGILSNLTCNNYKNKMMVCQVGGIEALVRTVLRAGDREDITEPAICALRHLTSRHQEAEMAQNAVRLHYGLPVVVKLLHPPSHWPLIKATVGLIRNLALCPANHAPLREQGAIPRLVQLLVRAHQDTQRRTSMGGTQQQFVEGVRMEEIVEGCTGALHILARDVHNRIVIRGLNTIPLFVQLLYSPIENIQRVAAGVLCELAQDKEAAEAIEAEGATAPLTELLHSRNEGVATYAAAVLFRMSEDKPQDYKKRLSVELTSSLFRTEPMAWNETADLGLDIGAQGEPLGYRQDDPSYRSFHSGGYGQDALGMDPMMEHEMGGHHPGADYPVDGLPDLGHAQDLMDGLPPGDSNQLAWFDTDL

[5] = target: Renin receptor (ATP6IP2) (Homo sapiens, UniProt O75787); assay: Surface plasmon resonance (Biacore); type: binding; conditions: ATP6IP2, SPR
[6] = test system: UACC-62; assay: NCI 60 cytotoxicity screening; type: cell-based; conditions: Homo sapiens; UACC-62, Melanoma
[7] = test system: MOLT-4; assay: NCI 60 cytotoxicity screening; type: cell-based; conditions: Homo sapiens; MOLT-4, Leukemia
[8] = test system: HT29; assay: NCI 60 cytotoxicity screening; type: cell-based; conditions: Homo sapiens, HT-29; HT29, Colon
[9] = test system: U251; assay: NCI 60 cytotoxicity screening; type: cell-based; conditions: Homo sapiens, U-251; U251, CNS
[10] = test system: UACC-257; assay: NCI 60 cytotoxicity screening; type: cell-based; conditions: Homo sapiens; UACC-257, Melanoma
[11] = test system: MDA-MB-435; assay: NCI 60 cytotoxicity screening; type: cell-based; conditions: Homo sapiens; MDA-MB-435, Melanoma
[12] = test system: T-47D; assay: NCI 60 cytotoxicity screening; type: cell-based; conditions: Homo sapiens, T47D, Breast
[13] = test system: A498; assay: NCI 60 cytotoxicity screening; type: cell-based; conditions: Homo sapiens; A498, Renal
[14] = test system: SF-539; assay: NCI 60 cytotoxicity screening; type: cell-based; conditions: Homo sapiens; SF-539, CNS
[15] = target: Integrin β4 (Homo sapiens, UniProt P16144); assay: Surface plasmon resonance (Biacore); type: binding; conditions: Integrin β4, SPR
[16] = target: Nucleolin (Homo sapiens, UniProt P19338); assay: Surface plasmon resonance (Biacore); type: binding; conditions: SPR
[17] = test system: RXF 393; assay: NCI 60 cytotoxicity screening; type: cell-based; conditions: Homo sapiens; RXF 393, Renal
[18] = test system: OVCAR-3; assay: NCI 60 cytotoxicity screening; type: cell-based; conditions: Homo sapiens; OVCAR-3, Ovarian
[19] = target: T2, human Hsp90 recombinant protein (HSP90AB1) (Homo sapiens, UniProt P08238); assay: Surface plasmon resonance (Biacore); type: binding; conditions: recombinant human Hsp90 beta protein
T2 construct: purchased Abcam ab131923
Experimental: To confirm the molecular binding of the targeted protein, Surface Plasmon Resonance (SPR) was performed with a Biacore 3000. TRAP1 recombinant protein (Abcam, ab123775) or human Hsp90 recombinant protein (HSP90AB1, Abcam, ab131923) were immobilized on a CM5 sensor chip surface using the amine coupling method according to the manufacturer’s instruction (Biacore, GE Healthcare). CVM-1125 was dissolved in sodium carbonate buffer (pH 9) and then diluted in HBS-EDTA-P20 buffer to desired concentrations (five serial dilutions from 1 × 10^−5 to 1 × 10^−8 M) and injected at flow 30 μL/min with KINJET 60/180 %pos, analyte position, volume, and dissociation time. Specific binding was calculated using BiaEval 3 software.

Nucleolin, sequence (P19338 whole entry): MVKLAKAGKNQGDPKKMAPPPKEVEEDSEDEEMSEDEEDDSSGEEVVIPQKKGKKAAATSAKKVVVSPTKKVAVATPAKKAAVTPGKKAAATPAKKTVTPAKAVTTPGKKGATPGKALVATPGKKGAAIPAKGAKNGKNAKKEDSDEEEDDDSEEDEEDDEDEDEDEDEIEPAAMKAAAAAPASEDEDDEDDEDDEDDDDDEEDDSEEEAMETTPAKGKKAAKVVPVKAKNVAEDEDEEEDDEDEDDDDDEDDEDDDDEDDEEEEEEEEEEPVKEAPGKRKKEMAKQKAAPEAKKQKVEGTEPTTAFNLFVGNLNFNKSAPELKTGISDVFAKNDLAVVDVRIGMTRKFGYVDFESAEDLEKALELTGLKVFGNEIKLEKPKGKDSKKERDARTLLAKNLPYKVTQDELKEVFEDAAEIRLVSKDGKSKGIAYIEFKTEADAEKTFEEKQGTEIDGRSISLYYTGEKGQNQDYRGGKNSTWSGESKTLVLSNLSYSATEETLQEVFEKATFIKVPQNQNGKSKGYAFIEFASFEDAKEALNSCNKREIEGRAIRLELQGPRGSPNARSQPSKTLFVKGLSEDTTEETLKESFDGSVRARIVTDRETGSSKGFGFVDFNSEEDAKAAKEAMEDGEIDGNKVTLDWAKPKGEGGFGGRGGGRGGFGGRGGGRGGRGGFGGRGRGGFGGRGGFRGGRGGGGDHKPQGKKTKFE
Renin receptor (ATP6IP2), sequence (O75787 17-350): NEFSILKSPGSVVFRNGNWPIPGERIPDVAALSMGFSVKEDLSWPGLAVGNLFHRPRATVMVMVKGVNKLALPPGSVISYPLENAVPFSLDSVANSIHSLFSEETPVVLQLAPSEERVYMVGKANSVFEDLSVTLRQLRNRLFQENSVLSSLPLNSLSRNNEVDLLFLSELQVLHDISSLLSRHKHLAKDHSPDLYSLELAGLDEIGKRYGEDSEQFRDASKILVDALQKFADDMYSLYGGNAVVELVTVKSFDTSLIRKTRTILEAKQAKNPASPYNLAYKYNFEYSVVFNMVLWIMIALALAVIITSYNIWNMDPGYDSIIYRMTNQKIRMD
Integrin β4, sequence (P16144 28-1822): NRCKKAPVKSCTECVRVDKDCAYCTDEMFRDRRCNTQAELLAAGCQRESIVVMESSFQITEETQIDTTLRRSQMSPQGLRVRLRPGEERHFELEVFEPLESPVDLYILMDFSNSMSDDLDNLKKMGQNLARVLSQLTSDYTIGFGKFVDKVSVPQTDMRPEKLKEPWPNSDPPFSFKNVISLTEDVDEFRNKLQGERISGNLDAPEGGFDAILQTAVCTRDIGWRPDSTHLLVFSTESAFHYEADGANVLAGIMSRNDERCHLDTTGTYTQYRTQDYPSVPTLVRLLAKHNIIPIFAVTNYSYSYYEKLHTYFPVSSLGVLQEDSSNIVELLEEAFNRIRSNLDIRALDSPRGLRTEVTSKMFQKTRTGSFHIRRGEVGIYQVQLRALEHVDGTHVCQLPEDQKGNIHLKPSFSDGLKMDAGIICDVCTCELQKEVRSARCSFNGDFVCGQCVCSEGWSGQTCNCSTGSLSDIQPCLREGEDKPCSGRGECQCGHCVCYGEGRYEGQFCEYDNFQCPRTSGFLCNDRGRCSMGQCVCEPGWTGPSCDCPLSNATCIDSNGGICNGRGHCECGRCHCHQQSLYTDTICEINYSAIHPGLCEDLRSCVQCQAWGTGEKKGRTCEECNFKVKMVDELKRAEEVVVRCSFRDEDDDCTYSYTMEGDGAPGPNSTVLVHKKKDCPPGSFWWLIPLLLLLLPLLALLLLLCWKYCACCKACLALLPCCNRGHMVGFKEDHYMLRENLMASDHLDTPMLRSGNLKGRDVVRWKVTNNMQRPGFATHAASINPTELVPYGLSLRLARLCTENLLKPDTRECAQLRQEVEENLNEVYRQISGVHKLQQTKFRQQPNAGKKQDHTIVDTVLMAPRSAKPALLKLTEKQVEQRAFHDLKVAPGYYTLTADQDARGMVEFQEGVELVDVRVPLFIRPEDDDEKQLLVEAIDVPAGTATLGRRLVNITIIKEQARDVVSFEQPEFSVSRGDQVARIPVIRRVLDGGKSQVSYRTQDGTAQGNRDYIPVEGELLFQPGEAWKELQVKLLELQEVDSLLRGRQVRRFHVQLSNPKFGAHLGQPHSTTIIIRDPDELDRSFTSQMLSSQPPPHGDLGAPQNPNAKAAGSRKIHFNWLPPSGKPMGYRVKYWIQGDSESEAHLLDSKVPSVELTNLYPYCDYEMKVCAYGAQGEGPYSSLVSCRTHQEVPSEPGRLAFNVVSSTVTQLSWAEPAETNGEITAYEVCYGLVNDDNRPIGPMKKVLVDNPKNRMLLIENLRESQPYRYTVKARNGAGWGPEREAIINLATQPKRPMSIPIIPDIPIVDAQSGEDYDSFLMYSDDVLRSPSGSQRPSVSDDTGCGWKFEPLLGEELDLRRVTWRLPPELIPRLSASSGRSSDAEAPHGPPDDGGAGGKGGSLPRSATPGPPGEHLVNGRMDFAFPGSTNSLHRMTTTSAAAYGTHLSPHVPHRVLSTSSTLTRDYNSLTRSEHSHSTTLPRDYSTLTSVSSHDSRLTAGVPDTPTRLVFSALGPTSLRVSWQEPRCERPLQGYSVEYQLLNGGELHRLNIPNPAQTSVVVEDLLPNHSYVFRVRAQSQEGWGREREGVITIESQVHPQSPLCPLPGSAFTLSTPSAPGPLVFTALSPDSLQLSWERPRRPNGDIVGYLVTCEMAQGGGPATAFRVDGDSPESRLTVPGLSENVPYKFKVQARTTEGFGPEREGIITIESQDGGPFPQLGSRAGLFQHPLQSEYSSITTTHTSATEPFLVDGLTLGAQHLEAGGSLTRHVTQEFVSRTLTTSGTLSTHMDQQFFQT
T2 sequence (P08238 whole entry): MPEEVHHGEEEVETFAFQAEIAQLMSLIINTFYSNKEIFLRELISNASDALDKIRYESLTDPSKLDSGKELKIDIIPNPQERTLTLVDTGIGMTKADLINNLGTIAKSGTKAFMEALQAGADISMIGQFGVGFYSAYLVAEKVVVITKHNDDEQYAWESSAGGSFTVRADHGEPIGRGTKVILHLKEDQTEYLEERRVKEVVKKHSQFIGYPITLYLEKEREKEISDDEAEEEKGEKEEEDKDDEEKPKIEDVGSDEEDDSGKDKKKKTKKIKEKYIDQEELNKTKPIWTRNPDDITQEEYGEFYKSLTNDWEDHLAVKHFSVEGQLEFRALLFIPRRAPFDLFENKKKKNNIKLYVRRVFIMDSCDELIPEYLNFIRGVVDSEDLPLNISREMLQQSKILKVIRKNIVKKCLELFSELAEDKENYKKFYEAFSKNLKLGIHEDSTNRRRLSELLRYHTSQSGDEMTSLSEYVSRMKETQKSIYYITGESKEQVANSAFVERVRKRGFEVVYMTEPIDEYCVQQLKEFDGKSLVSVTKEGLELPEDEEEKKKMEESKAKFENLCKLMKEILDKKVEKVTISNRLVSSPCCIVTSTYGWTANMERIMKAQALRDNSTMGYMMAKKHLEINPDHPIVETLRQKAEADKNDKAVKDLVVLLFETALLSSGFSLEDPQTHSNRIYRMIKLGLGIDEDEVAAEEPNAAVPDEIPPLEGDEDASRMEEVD

## COc1ccc2[nH]c(-c3cccc(F)c3)cc(=O)c2c1OP(=O)(O)O [CVM-1118]
[1]
  expression of Nodal (mRNA): decreased

## COc1ccc2[nH]c(-c3cccc(F)c3)cc(=O)c2c1O [CVM-1125]
[2]
  Association (ka): No interaction
  Dissociation (kd): No interaction
  KD (kd/ka): No interaction
[3]
  GI50: 35.6 nM
[4]
  Association (ka): No interaction
  Dissociation (kd): No interaction
  KD (kd/ka): No interaction
[5]
  Dissociation (kd): 0.021 s⁻¹
[5]; read-out: Association (ka)
  kon: 122000 M⁻¹ s⁻¹
[5]; read-out: KD (kd/ka)
  Kd: 173 nM
[6]
  GI50: 31 nM
[7]
  GI50: 47.6 nM
[8]
  GI50: 29 nM
[9]
  GI50: 42.9 nM
[10]
  GI50: 33.7 nM
[11]
  GI50: < 10 nM
[12]
  GI50: 28 nM
[13]
  GI50: 24.8 nM
[14]
  GI50: 26.2 nM
[15]
  Association (ka): No dose dependent interaction
  Dissociation (kd): No dose dependent interaction
  KD (kd/ka): No dose dependent interaction
[16]
  Dissociation (kd): 0.0122 s⁻¹
[16]; read-out: Association (ka)
  kon: 13500 M⁻¹ s⁻¹
[16]; read-out: KD (kd/ka)
  Kd: 906 nM
[17]
  GI50: 17.5 nM
[18]
  GI50: 19.1 nM
[19]
  interaction with Hsp90 by SPR: no specific interaction; also recorded: not interacting
